Legend:
[1] = system: RA-responsive genes, cyp26a1 and cmlc2; assay: In situ hybridization for RA-responsive genes cyp26a1 and cmlc2 in 18-somite embryos; format: in vivo, zebrafish; details: 3 μM
Procedure: In situ hybridization and immunocytochemistry: In situ hybridization was performed as previously described with some modifications.142 Hybridization temperature was 65° C. Embryos were blocked in 2% blocking reagent (Roche) with 5% sheep serum in MAB (100 mM maleic acid and 150 mM NaCl [pH 7.5]). Whole-mount immunocytochemistry with 1:25 mouse anti-α6F antibody (Developmental Studies Hybridoma Bank) and 1:100 Cy3 secondary antibody (Jackson ImmunoResearch) was performed as described previously.108 Embryos were embedded in JB-4 for sectioning per the manufacturer's instructions (Polysciences), sectioned at 5 μm, and mounted with Cytoseal 60 (Richard-Allan Scientific).
HDACis are believed to lower the threshold of RA necessary to activate transcription. If PTBA treatment facilitates activation of the RA pathway, then expression of genes responsive to RA signaling should change. […] In a previous study, cmlc2 expression was assessed for RAdependent effects in 18-somite embryos (Keegan, B. R., Feldman, J. L., Begemann, G., Ingham, P. W. & Yelon, D. Retinoic acid signaling restricts the cardiac progenitor pool. Science 307, 247-249, (2005)), therefore embryos were collected at the 18-somite stage for continuity. […]

[2] = system: histone H4; assay: Histone H4 hyperacetylation Western blot in treated embryos; format: in vivo, zebrafish; details: 24 hpf embryos, 6 hours; 3 μM PTBA, 25 μM PBA, 200 nM TSA
Procedure: It was next determined whether the HDACi function of PTBA was quantifiable in vivo. 24 hpf embryos were treated with 3 μM PTBA, 25 μM PBA, or 200 nM TSA for 6 hours. Protein extracts were prepared and immunoblotted with an anti-hyperacetylated histone H4 antibody. […] Furthermore, increasing the compound concentration caused a corresponding increase in hyperacetylation (FIG. 21).
SDS-PAGE and Western blotting were performed as described previously with some modifications (Noel, E. S. et al. Organ-specific requirements for Hdac1 in liver and pancreas formation. Dev Biol 322, 237-250, (2008)). Proteins were separated on 18% SDS-PAGE gels. Membranes were incubated at 4° C. overnight with 1:1000 anti-hyperacetylated histone H4 antibody (06-946, Millipore) or 1:1000 anti-α-tubulin antibody (Sigma-Aldrich) in PBT containing 5% nonfat milk.

[3] = system: zebrafish embryos; assay: Phenotypic screen for edema and survival in zebrafish larvae at 72 hpf
In short: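 Embryos (5/well in primary screen; 12–30 per group otherwise) exposed from 2 hpf in E3 medium with 0.5% DMSO, 10 μM in screen or stated concentrations, 28.5 °C for 70 h. At 72 hpf, edema scored by phenotype classification (dominant phenotype in ≥4/5 embryos in screen); survival vs 0 μM by two-tailed Fisher's exact test (p<0.05).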

[4] = system: human HDACs; assay: Fluorescence histone deacetylation assay with HeLa cell nuclear extract; format: biochemical
Procedure: To evaluate this in vitro, the deacetylation of a fluorescent peptide substrate was measured in the presence of human HDACs.
In vitro HDAC activity assays were performed using a fluorescence HDAC assay kit (Active Motif) according to the manufacturer's instructions. For maintaining compound solubility at 5 mM, the final DMSO concentration in all assay wells was increased to 5%. Fluorescence was detected using an M5 Plate Reader ([…])

[5] = number of larvae (of 36), 3 μM from 2 hpf, scored at 72 hpf

SMILES: O=C(O)CCCSc1ccccc1 [UPHD-00020, 4-(phenylthio)butanoic acid (PTBA)]
- cmlc2 expression decreased, percent of treated embryos [1]: 100%
- cyp26a1 expression increased, percent of treated embryos [1]: 100%
- histone H4 hyperacetylation [2]: Histone H4 hyperacetylation was observed
- larvae with edemic phenotype / pericardial edema by 72 hpf ([3]; 3 μM PTBA, 25 μM PBA, 200 nM TSA): 92%
- phenotype in initial chemical screen ([3]; 10 μM, larvae at 72 hpf): pericardial edema
- survival to 72 hpf ([3]; 10 μM, n=90): died before 72 hpf
- Dead [3, 5]: 1
- Edemic 1 (E1) [3, 5]: 13
- Edemic 2 (E2) [3, 5]: 17
- Edemic 3 (E3) [3, 5]: 5
- Wild-type (WT) [3, 5]: 0
- HDAC activity elicited by 10 μg HeLa extract, percent of the control value ([4]; 5 mM compound): 30%
- reduction of HDAC activity ([4]; millimolar concentrations): 70%

From patent US10160705B2, “Class of HDAC inhibitors expands the renal progenitor cells population and improves the rate of recovery from acute kidney injury” (University of Pittsburgh—Of the Commonwealth System of …, priority 2011, dated 2018)
